“And” between values parts separate entries of the source, which are not always exact repeats. Identical values can stand only once.
Columns and labels:
[1] = tested on: granulation tissue; assay: Subcutaneous Ivalon sponge implantation, histological analysis of granulation tissue formation; assay type: in vivo, Sprague-Dawley rats; settings: score on the 0-4 scale; tested in a similar manner to collagen/sucrose octasulfate; potassium salts
Procedure: By means of subcutaneous implantation of Ivalon sponges the phase of granulation tissue formation in the repair process can be evaluated. Following a vigorous cleanup procedure the sponge material evokes only minimal inflammatory response. Sterile sponges prepared as set forth in Example 12 were injected with a 50 µl suspension of collagen/sucrose octasulfate suspension prepared as in Example 12. […] The sponges were surgically implanted into 350-500 g, male Sprague-Dawley rats. Before the implantation procedure three rats were anesthetized and their dorsal surfaces shaved and wiped with Predodyne (West Chemical Products, Lynbrook, N.Y.). Six 6 mm incisions were cut in groups of two (one on each side of the vertebral column rostrally, centrally and caudally), spaced equi-distant from each other between the pectoral and pelvic girdles on the dorsal surface. At each incision a pocket was made between the panniculus carnosus and the dermis and two sponges inserted into it, one rostrally and the other caudally; a total of 12 sponges were thus implanted in each animal. The position of each test preparation was alternated between the rostral, central and caudal positions to control the variation due to anatomical location. The incisions were closed with 11-mm Michel wound clips (Propper, Long Island City, N.Y.). Seven days following implantation the animals were sacrificed and the sponges surgically removed with their adhered connective tissue capsules. Controls, sponges injected with either PBS or collagen only were treated in a similar manner. In all, approximately 120 sponges per group were used in the study and randomly selected for biochemical and histologic analysis. The sponges were fixed in formalin and embedded in either plastic or Paraplast following dehydration. Sections were stained with hemotocylin and eosin, trichrome, silver or PAS. […] Mesenchymal cell infiltration was also scored on a predetermined scale from 0-4. […] Although the whole sponge area was used for analysis we noted that the most striking differences between the various treatments were evident in the center of the sponge. Therefore, the histologic appearance of the central zone was selected for presentation.

[2] = tested on: bone fracture; assay: Repair of bone fractures (fractured ulna, loss of minerals on decalcification, histology); assay type: in vivo, guinea pigs; settings: for after decalcification / before decalcification: ten days after surgery
Procedure: The ulnae of 18 guinea pigs were exposed surgically and then fractured at the midshaft, using a very fine dental burr as a saw. The intact radius served as an immobilization splint. The animals were divided into six groups, three in each, according to the treatment at the fracture site, which was as follows: • Group 1. Untreated controls • Group 2. Sucrose octasulfate 1.0 mg/ml instilled at the fracture site with a syringe • Group 3. Sucrose octasulfate 4.0 mg/ml • Group 4. Collagen (a native 0.25% neutral salt solution) • Group 5. Collagen plus sucrose octasulfate 1.0 mg/ml • Group 6. Collagen plus sucrose octasulfate 4.0 mg/ml
The animals were sacrified ten days after surgery, and the fractured bones were dissected and processed for both histologic and biochemical analyses.

[3] = tested on: granulation tissue; assay: Subcutaneous Ivalon sponge implantation, histological analysis of granulation tissue formation; assay type: in vivo, Sprague-Dawley rats; settings: no collagen
[4] = tested on: pressure ulcer; assay: Clinical double-blind dose-response trial in pressure ulcers; assay type: in vivo, patients; settings: for Results: twice daily
Procedure: Five patients were subjected to a dose-response trial using sucrose octasulfate in water. The test was a double-blind trial with four treatment arms, 0.1, 1.0, or 10mg/ml or placebo (sterile water for irrigation). Patients were entered following debridement of the study pressure ulcer and a gauze sponge was saturated with sucrose octasulfate solution (i.e. sucrose octasulfate in sterile water vehicle) or placebo and packed into the ulcer crater, then covered with biobrane dressing to keep the area moist. Treatments were applied twice daily for a 30 day interval for four patients and for three weeks for the fifth patient.
The patient population was bedridden comatose adults with chronic ulcers having failed with some form of previous treatment(s). The patients were kept on the same ward as they had been during months prior to the trials so nursing care was uniform prior to and during the study. Thus, any response is favourable. The first four cases are nearly uniform in that three of four treatment ulcers were trochanteric.

[5] = tested on: rabbit corneas; assay: Rabbit cornea assay for angiogenesis; assay type: in vivo
Procedure: This may offer an explanation for the dense vascular bed that characterized the granulation tissue in the in-vivo experiments. Sucrose octasulate at concentrations of 0.1 to 100 µg/ml was encapsulated in Hydron and implanted in rabbit corneas. The method used was that described in Surgery 96:48-54, 1984. The […] solution (sucrose octasulfate or PBS) was mixed with an equal volume of Hydron and allowed to polymerize under reduced pressure. […] Eyes were evaluated at days 1 through 14 post-implantation for gross inflammation and, as described by Hunt, et al, in Surgery 96:48-54, 1984, for angiogenesis. Corneal neovascularization was graded on a scale of 0-4+ (integers only being assigned). Zero denotes a normal eye with no ingrowth on limbal vessels into the corneal stroma; 1+, up to 1 mm of capillary ingrowth in a localized arc adjacent to the injection site; 2+, […] ingrowth; 3+, 2-3 mm ingrowth; and 4+, 3 mm or greater ingrowth in a wide arc along the limbal edge toward the injection site. […] To ascertain that the observed angiogenesis was not secondary to an inflammatory process some eyes with a positive response were removed and stained with H&E and a nonspecific esterase stain as early as two days after implantation.

[6] = tested on: collagen; assay: Sucrose octasulfate induced collagen fibrillogenesis (stopped-flow turbidity); assay type: biochemical
Text: Sucrose octasulfate-induced collagen fibril formation was studied in a spectrophotometer equipped with a stopped-flow apparatus. […]

[7] = sucrose octasulfate 1 mg/ml at fracture site
[8] = sucrose octasulfate 4 mg/ml at fracture site

hemorrhage in sponge ([3]; 10.0 mg/ml sucrose octasulfate in Hydron): local hemorrhage
Compound: O=S(=O)([O-])OC[C@H]1O[C@@](COS(=O)(=O)[O-])(O[C@H]2O[C@H](COS(=O)(=O)[O-])[C@@H](OS(=O)(=O)[O-])[C@H](OS(=O)(=O)[O-])[C@H]2OS(=O)(=O)[O-])[C@@H](OS(=O)(=O)[O-])[C@@H]1OS(=O)(=O)[O-].[K+].[K+].[K+].[K+].[K+].[K+].[K+].[K+] [Sucrose Octasulfate, potassium sucrose octasulfate]
Sponge [1]: 4
after decalcification [2, 7]: 2.20
before decalcification [2, 7]: 7.00
decrease ([2]; sucrose octasulfate 1 mg/ml, loss of minerals following decalcification): 4.80 mg
decrease ([2]; sucrose octasulfate 1 mg/ml, percent loss of minerals following decalcification): 68.6%
after decalcification [2, 8]: 2.60
before decalcification [2, 8]: 5.90
decrease ([2]; sucrose octasulfate 4 mg/ml, loss of minerals following decalcification): 3.30 mg
decrease ([2]; sucrose octasulfate 4 mg/ml, percent loss of minerals following decalcification): 55.9%
histologic appearance of sponge (granulation tissue) ([3]; 50 µl of Hydron containing either 1.0 mg/ml or 0.1 mg/ml sucrose octasulfate): formation of granulation tissue densely populated with fibroblasts and highly vascularized with new capillary growth
Depth (prestudy) ([4]; Patient 001, 10 mg/ml): 0.5 cm
Results ([4]; Patient 001, 10 mg/ml in water, 30 days): no reduction in ulcer depth
Depth (after treatment) ([4]; Patient 001, 10 mg/ml, 30 days): 0.5 cm
Depth (prestudy) ([4]; Patient 002, 1 mg/ml): 3.0 cm
Results ([4]; Patient 002, 1 mg/ml in water, 30 days): reduction in ulcer depth
Depth (after treatment) ([4]; Patient 002, 1 mg/ml, 30 days): 1.5 cm
Depth (prestudy) ([4]; Patient 003, 0.1 mg/ml): 0.5 cm
Results ([4]; Patient 003, 0.1 mg/ml in water, 30 days): some reduction in ulcer depth
Depth (after treatment) ([4]; Patient 003, 0.1 mg/ml, 30 days): 0.3 cm
Depth (prestudy) ([4]; Patient 005, 10 mg/ml): 2.8 cm
Results ([4]; Patient 005, 10 mg/ml in water, three weeks): reduction in ulcer depth
Depth (after treatment) ([4]; Patient 005, 10 mg/ml, after 3 weeks of treatment): 1.6 cm
extent of angiogenesis ([5]; 0.1 µg/ml): negative
No. Positive Responses ([5]; 0.1 µg/ml in Hydron, 5 corneas implanted): 0
No. Positive Responses ([5]; 1 µg/ml in Hydron, 6 corneas implanted): 1
No. Positive Responses ([5]; 10 µg/ml in Hydron, 5 corneas implanted): 4
No. Positive Responses ([5]; 100 µg/ml in Hydron, 9 corneas implanted): 8
Angiogenesis ([5]; grade on scale 0-4+ in rabbit cornea, potassium salts): 4
angiogenic response ([5]; implantation of 10 and 100 µg/ml): most potent angiogenic response
extent of angiogenesis ([5]; lower concentration, 1.0 g/ml as printed): decreased
moles of sucrose octasulfate per mole of collagen initiating the reaction [6]: five
critical concentration (lower concentration required for initiation of fibrillogenesis of collagen) ([6]; collagen 0.5 mg/ml, pH 7.4): 0.01 mg/ml
fibrillogenesis at pH 3.0 compared with pH 7.4 ([6]; pH 3.0): Identical results
time to dissociation of the transient complex ([6]; sucrose octasulfate 0.01 mg/ml, collagen 0.5 mg/ml): ≤ 100 ms
time of formation of collagen fibrils ([6]; sucrose octasulfate 0.2 mg/ml, collagen 0.5 mg/ml, pH 7.4): 60 to 70 ms and 60 to 75 ms
